Measured values as given in ChEMBL document CHEMBL1132079, “Combined NK1 and NK2 tachykinin receptor antagonists: synthesis and structure-activity relationships of novel oxazolidine analogues” (Bioorg Med Chem Lett, 1999).
pIC50: −log10 of the molar value. Active and inactive are the calls of the source. No cut-off for these calls is given here.

Assays:
[1] = target: T1, Substance-K receptor (Cavia porcellus, UniProt Q64077); experiment: Inhibitory activity against Neurokinin 2 (NK2) receptor from guinea pig ileum; type: tissue-based
T1 sequence (Q64077 whole entry): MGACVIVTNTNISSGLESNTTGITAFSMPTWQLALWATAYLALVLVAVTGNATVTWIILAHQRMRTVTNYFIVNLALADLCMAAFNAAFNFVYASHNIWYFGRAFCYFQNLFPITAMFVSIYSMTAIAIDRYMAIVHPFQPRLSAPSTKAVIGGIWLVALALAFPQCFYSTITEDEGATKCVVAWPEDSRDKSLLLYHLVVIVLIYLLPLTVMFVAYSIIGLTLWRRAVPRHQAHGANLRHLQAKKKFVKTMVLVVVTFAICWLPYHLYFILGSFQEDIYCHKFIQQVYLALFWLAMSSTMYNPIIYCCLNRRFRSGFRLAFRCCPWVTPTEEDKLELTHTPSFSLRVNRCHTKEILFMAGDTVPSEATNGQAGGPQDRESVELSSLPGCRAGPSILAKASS

[2] = target: Substance-P receptor (Cavia porcellus, UniProt P30547); experiment: Inhibitory activity against Neurokinin 1 (NK1) receptor from guinea pig lung
Chain of Substance-P receptor (P30547 whole entry): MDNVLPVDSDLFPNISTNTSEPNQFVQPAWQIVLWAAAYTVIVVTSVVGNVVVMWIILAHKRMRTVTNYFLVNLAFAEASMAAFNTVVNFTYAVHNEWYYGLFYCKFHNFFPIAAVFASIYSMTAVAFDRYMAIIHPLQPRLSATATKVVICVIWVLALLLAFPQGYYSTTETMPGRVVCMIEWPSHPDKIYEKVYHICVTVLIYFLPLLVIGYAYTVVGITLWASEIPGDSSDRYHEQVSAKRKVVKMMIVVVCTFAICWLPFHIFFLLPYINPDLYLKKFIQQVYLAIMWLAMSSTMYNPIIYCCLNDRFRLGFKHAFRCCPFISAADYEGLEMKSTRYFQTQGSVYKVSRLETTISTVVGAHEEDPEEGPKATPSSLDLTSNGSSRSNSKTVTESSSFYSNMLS

[3] = target: Substance-P receptor (Cavia porcellus) (UniProt P30547); experiment: Inhibitory activity against Neurokinin 1 (NK1) receptor from guinea pig lung at a concentration of 1 ug/mL
Chain of Substance-P receptor (Cavia porcellus) (P30547 whole entry): as above

[4] = target: T2, Substance-K receptor (Cavia porcellus) (UniProt Q64077); experiment: Antagonist activity against Neurokinin 2 (NK2) receptor from guinea pig ileum at a concentration of 1 ug/mL; type: functional, tissue-based
T2 sequence (whole entry): T1 sequence (Q64077 whole entry)

Compound | pIC50 [1] | pIC50 [2] | inhibition [3] | inhibition [4]
COc1cc(C(=O)N2CO[C@](CCN3CCC(C(N)=O)(c4ccccc4)CC3)(c3ccc(Cl)cc3)C2)cc(OC)c1OC | 6.48 | 7.35 | – | –
COc1cc(C(=O)N2CO[C@](CCN3CCC4(CC3)C[S+]([O-])c3ccccc34)(c3ccc(Cl)c(Cl)c3)C2)cc(OC)c1OC (some centres not stated) | 7.96 | 8.05 | – | –
COc1cc(C(=O)N2CO[C@](CCCN3CCC(C(N)=O)(c4ccccc4)CC3)(c3ccc(Cl)c(Cl)c3)C2)cc(OC)c1OC | < 5.82 | 7.46 | – | –
COc1cc(C(=O)N2CO[C@](CCN3CCC(C(=O)N4CCCC4)(c4ccccc4)CC3)(c3ccc(Cl)c(Cl)c3)C2)cc(OC)c1OC | 7.04 | 7.95 | – | –
NC(=O)C1(c2ccccc2)CCN(CC[C@@]2(c3ccc(Cl)c(Cl)c3)CN(C(=O)c3ccncc3)CO2)CC1 | – | – | 65% | 57%
COc1cc(C(=O)N2CO[C@](CCN3CCC(C(C)=O)(c4ccccc4)CC3)(c3ccc(Cl)c(Cl)c3)C2)cc(OC)c1OC | – | – | 83% | 57%
COc1cccc(C(=O)N2CO[C@](CCN3CCC(C(N)=O)(c4ccccc4)CC3)(c3ccc(Cl)c(Cl)c3)C2)c1 | – | – | 100% | 82%
NC(=O)C1(c2ccccc2)CCN(CC[C@@]2(c3ccc(Cl)c(Cl)c3)CN(C(=O)c3ccccn3)CO2)CC1 | – | – | 39% | 73%
NC(=O)C1(c2ccccc2)CCN(CC[C@@]2(c3ccc(Cl)c(Cl)c3)CN(C(=O)c3cc4ccccc4o3)CO2)CC1 | – | – | inactive | 59%
COC(=O)c1ccc(C(=O)N2CO[C@](CCN3CCC(C(N)=O)(c4ccccc4)CC3)(c3ccc(Cl)c(Cl)c3)C2)cc1 | – | – | 36% | 85%
COc1cc(C(=O)N2CO[C@](CCN3CCC(C(=O)N4CCOCC4)(c4ccccc4)CC3)(c3ccc(Cl)c(Cl)c3)C2)cc(OC)c1OC | 7.14 | 7.35 | – | –
CC(=O)Nc1ccc(C(=O)N2CO[C@](CCN3CCC(C(N)=O)(c4ccccc4)CC3)(c3ccc(Cl)c(Cl)c3)C2)cc1 | – | – | 9% | 85%
NC(=O)C1(c2ccccc2)CCN(CC[C@@]2(c3ccc(Cl)c(Cl)c3)CN(C(=O)c3cc(C(F)(F)F)cc(C(F)(F)F)c3)CO2)CC1 | 6.80 | 6.84 | – | –
COc1cc(OC)cc(C(=O)N2CO[C@](CCN3CCC(C(N)=O)(c4ccccc4)CC3)(c3ccc(Cl)c(Cl)c3)C2)c1 | – | – | 93% | 97%
COc1cc(C(=O)N2CO[C@](CCN3CCC4(CC3)OCc3ccccc34)(c3ccc(Cl)c(Cl)c3)C2)cc(OC)c1OC | – | – | 98% | 91%
COc1cc(C(=O)N2CO[C@](CCN3CCC(n4c(O)nc5ccccc54)CC3)(c3ccc(Cl)c(Cl)c3)C2)cc(OC)c1OC | – | – | 100% | 85%
COc1cc(C(=O)N2CO[C@](CCN3CCC(O)(c4ccncc4)CC3)(c3ccc(Cl)c(Cl)c3)C2)cc(OC)c1OC | 6.84 | 8.51 | – | –
COc1cc(C(=O)N2CO[C@](CCN3CCC4(CC3)CN(c3ccccc3)C(=O)O4)(c3ccc(Cl)c(Cl)c3)C2)cc(OC)c1OC | – | – | 86% | 12%
COc1cc(C(=O)N2CO[C@](CCN3CCC(C(N)=O)(c4ccccc4)CC3)(c3ccc(F)c(F)c3)C2)cc(OC)c1OC | 6.48 | 7.79 | – | –
COc1cc(C(=O)N2CO[C@](CCN3CCC(C(N)=O)(c4ccccc4)CC3)(c3ccc(Cl)c(Cl)c3)C2)cc(OC)c1OC | 6.85 | 8.02 | – | –
COc1cc(C(=O)N2CO[C@](CCN3CCC4(CC3)SCc3ccccc34)(c3ccc(Cl)c(Cl)c3)C2)cc(OC)c1OC | – | – | 100% | 89%
COc1ccccc1C(=O)N1CO[C@](CCN2CCC(C(N)=O)(c3ccccc3)CC2)(c2ccc(Cl)c(Cl)c2)C1 | – | – | 100% | 87%
CC(C)Oc1cccc(CC(=O)N2CO[C@](CCN3CCC(C(N)=O)(c4ccccc4)CC3)(c3ccc(Cl)c(Cl)c3)C2)c1 | – | – | 59% | 18%
COc1ccc(C(=O)N2CO[C@](CCN3CCC(C(N)=O)(c4ccccc4)CC3)(c3ccc(Cl)c(Cl)c3)C2)cc1 | 6.53 | 6.95 | – | –
N#Cc1ccc(C(=O)N2CO[C@](CCN3CCC(C(N)=O)(c4ccccc4)CC3)(c3ccc(Cl)c(Cl)c3)C2)cc1 | – | – | 29% | 79%
COc1ccc(S(=O)(=O)N2CO[C@](CCN3CCC(C(N)=O)(c4ccccc4)CC3)(c3ccc(Cl)c(Cl)c3)C2)cc1OC | – | – | 71% | 10%
COc1cc(C(=O)N2CO[C@](CCN3CCN(c4ccccn4)CC3)(c3ccc(Cl)c(Cl)c3)C2)cc(OC)c1OC | – | – | 100% | 42%

Compound | pIC50 [1] | pIC50 [2] | inhibition [3] | inhibition [4]
Cc1ccc(C(=O)N2CO[C@](CCN3CCC(C(N)=O)(c4ccccc4)CC3)(c3ccc(Cl)c(Cl)c3)C2)cc1 | – | – | 56% | 88%
COc1cc(C(=O)N2CO[C@](CCN3CCC(NC(=O)c4ccccc4)CC3)(c3ccc(Cl)c(Cl)c3)C2)cc(OC)c1OC | – | – | 89% | 44%
NC(=O)C1(c2ccccc2)CCN(CC[C@@]2(c3ccc(Cl)c(Cl)c3)CN(C(=O)c3cc4ccccc4[nH]3)CO2)CC1 | – | – | 96% | 26%
NC(=O)C1(c2ccccc2)CCN(CC[C@@]2(c3ccc(Cl)c(Cl)c3)CN(C(=O)c3ccc4ccccc4n3)CO2)CC1 | – | – | inactive | 71%
COc1cc(C(=O)N2CO[C@](CCN3CCC(O)(c4ccccc4)CC3)(c3ccc(Cl)c(Cl)c3)C2)cc(OC)c1OC | – | – | 100% | 58%
COc1cc(C(=O)N2CO[C@](CCN3CCC(NC(C)=O)(c4ccccc4)CC3)(c3ccc(Cl)c(Cl)c3)C2)cc(OC)c1OC | – | – | 100% | 62%
COc1cc(C(=O)N2CO[C@](CCN3CCC(O)(c4ccccn4)CC3)(c3ccc(Cl)c(Cl)c3)C2)cc(OC)c1OC | – | – | 100% | 76%
NC(=O)C1(c2ccccc2)CCN(CC[C@@]2(c3ccc(Cl)c(Cl)c3)CN(C(=O)c3ccc(Cl)cc3)CO2)CC1 | – | – | 50% | 88%
COc1cc(CC(=O)N2CO[C@](CCN3CCC(C(N)=O)(c4ccccc4)CC3)(c3ccc(Cl)c(Cl)c3)C2)cc(OC)c1OC | – | – | 87% | inactive
NC(=O)C1(c2ccccc2)CCN(CC[C@@]2(c3ccc(Cl)c(Cl)c3)CN(C(=O)c3ccccc3)CO2)CC1 | – | – | 75% | 87%
NC(=O)C1(c2ccccc2)CCN(CC[C@@]2(c3ccc(Cl)c(Cl)c3)CN(C(=O)c3cnc4ccccc4n3)CO2)CC1 | – | – | 38% | 71%
COc1cc(C(=O)N2CO[C@](CCN3CCC4(CC3)C(=O)NCN4c3ccccc3)(c3ccc(Cl)c(Cl)c3)C2)cc(OC)c1OC | – | 8.13 | – | –
Cc1cc(C)cc(C(=O)N2CO[C@](CCN3CCC(C(N)=O)(c4ccccc4)CC3)(c3ccc(Cl)c(Cl)c3)C2)c1 | – | – | 100% | 90%
COc1ccc(C(=O)N2CO[C@](CCN3CCC(C(N)=O)(c4ccccc4)CC3)(c3ccc(Cl)c(Cl)c3)C2)cc1OC | – | – | 93% | 88%
COc1cc(C(=O)N2CO[C@](CCN3CCC4(CC3)CN(Cc3ccccc3)C(=O)O4)(c3ccc(Cl)c(Cl)c3)C2)cc(OC)c1OC | – | – | 86% | 44%
COc1cc(C(=O)N2CO[C@](CCN3CCC(O)(c4cccnc4)CC3)(c3ccc(Cl)c(Cl)c3)C2)cc(OC)c1OC | – | – | 100% | 100%
NC(=O)C1(c2ccccc2)CCN(CC[C@@]2(c3ccc(Cl)c(Cl)c3)CN(C(=O)c3cccs3)CO2)CC1 | – | – | 33% | 83%
NC(=O)C1(c2ccccc2)CCN(CC[C@@]2(c3ccc(Cl)c(Cl)c3)CN(C(=O)c3cnccn3)CO2)CC1 | – | – | 23% | 47%
COc1cccc(OC)c1C(=O)N1CO[C@](CCN2CCC(C(N)=O)(c3ccccc3)CC2)(c2ccc(Cl)c(Cl)c2)C1 | – | – | 74% | 83%
COc1cc(C(=O)N2CO[C@](CCN3CCC(C(=O)c4ccc(Cl)cc4)CC3)(c3ccc(Cl)c(Cl)c3)C2)cc(OC)c1OC | – | – | 97% | 54%
COc1cc(C(=O)N2CO[C@](CCN3CCC(C(N)=O)(c4ccccn4)CC3)(c3ccc(Cl)c(Cl)c3)C2)cc(OC)c1OC | – | – | 95% | 83%
COc1cc(C(=O)N2CO[C@](CCN3CCC(C(=O)NCc4ccccc4)CC3)(c3ccc(Cl)c(Cl)c3)C2)cc(OC)c1OC | – | 7.03 | – | 64%
NC(=O)C1(c2ccccc2)CCN(CC[C@@]2(c3ccc(Cl)c(Cl)c3)CN(C(=O)c3cccnc3)CO2)CC1 | – | – | 38% | 48%
COc1ccc(C(=O)N2CO[C@](CCN3CCC(C(N)=O)(c4ccccc4)CC3)(c3ccc(Cl)c(Cl)c3)C2)c(OC)c1 | – | – | 78% | 85%
COc1cc(C(=O)N2CO[C@](CCN3CCC4(CC3)CN(S(C)(=O)=O)c3ccccc34)(c3ccc(Cl)c(Cl)c3)C2)cc(OC)c1OC | – | – | 98% | 91%
COc1cc(C(=O)N2CO[C@](CCN3CCC(C(=O)Nc4ccccc4)CC3)(c3ccc(Cl)c(Cl)c3)C2)cc(OC)c1OC | – | – | 44% | 72%
COc1cc(C(=O)N2CO[C@](CCN3CCN(c4ncccn4)CC3)(c3ccc(Cl)c(Cl)c3)C2)cc(OC)c1OC | – | – | 100% | 48%
